The source of these data is patent US10391160B2, “Dimethyl fumarate and vaccination regimens” (Biogen MA Inc., priority 2014, dated 2019).

The series in a line: healthy volunteer study of flushing on DMF dosing with aspirin pre-treatment. Type of series: in vivo, human. The conditions noted are these: 325 mg non-enteric coated aspirin 30 minutes prior to DMF dosing; healthy volunteers. On the procedure: Subjects receiving a vaccine who experience flushing may be administered (e.g., 30 min. prior to DMF dosing) about 325 mg of aspirin to reduce flushing. Some patients who experience flushing with gastrointestinal side effects may reduce the dose to 120 mg DMF BID temporarily. Within a month, the effective dose of 240 mg DMF BID should be resumed.

Consider `CC(=O)Oc1ccccc1C(=O)O` [aspirin], for which the “occurrence and severity of flushing” value was “reduce the occurrence and severity of flushing”.
